We go through four compounds from ChEMBL document CHEMBL5052826, “Kif18a inhibitors” (2020).

The test deals with T1, Kinesin-like protein KIF18A (Homo sapiens, UniProt Q8NI77).
T1 sequence (Q8NI77 whole entry): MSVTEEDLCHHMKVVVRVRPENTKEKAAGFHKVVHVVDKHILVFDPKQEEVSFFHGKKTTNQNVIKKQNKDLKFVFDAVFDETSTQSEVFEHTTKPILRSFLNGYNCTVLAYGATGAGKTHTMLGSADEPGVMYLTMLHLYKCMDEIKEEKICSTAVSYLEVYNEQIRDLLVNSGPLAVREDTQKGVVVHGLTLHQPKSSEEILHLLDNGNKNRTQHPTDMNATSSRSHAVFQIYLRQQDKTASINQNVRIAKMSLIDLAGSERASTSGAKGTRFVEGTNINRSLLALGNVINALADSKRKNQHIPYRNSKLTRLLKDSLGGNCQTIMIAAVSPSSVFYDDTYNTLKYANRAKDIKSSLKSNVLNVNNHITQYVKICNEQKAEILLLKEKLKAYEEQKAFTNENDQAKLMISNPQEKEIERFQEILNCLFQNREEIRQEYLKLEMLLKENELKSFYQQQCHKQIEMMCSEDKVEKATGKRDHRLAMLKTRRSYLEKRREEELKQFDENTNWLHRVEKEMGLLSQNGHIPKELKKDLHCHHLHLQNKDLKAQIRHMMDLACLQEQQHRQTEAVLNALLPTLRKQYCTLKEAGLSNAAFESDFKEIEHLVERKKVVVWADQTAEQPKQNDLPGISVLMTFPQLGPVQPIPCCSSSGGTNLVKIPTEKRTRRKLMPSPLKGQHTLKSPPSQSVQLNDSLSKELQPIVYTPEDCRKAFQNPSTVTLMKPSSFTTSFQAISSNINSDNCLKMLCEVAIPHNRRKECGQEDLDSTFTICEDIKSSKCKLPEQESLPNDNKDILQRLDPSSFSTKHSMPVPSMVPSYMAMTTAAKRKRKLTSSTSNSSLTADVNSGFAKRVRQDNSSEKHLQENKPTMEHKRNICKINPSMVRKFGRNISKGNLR
Description: Inhibition of recombinant His-tagged human KIF18A (1 to 467 residues) expressed in baculovirus expression system assessed as inhibition of microtubule-stimulated ATPase activity preincubated for 15 mins followed by ATP addition and further incubated for 15 mins and measured after 40 mins by ADP-Glo reagent based assay. (ADP-Glo turns the ADP formed in a reaction into a luminescent signal.)

One may read the IC50 as the concentration that inhibits the measured activity by half. On to `Cc1cc(NC(=O)c2ccc(NS(=O)(=O)C[C@H](C)O)cc2N2CCC3(CC2)CC3)nc(N2CCO[C@H](C)C2)n1`, for which the IC50 came to 151 nM.

Take `Cc1cc(NC(=O)c2ccc(S(=O)(=O)[C@@H](C)CO)cc2N2CCC3(CC2)CC3)nc(N2CCC(F)(F)CC2)n1`: the half-maximal inhibitory concentration (IC50) came out at 57 nM.

Take `Cc1cc(NC(=O)c2ccc(S(=O)(=O)[C@H](C)CO)cc2N2CCC3(CC2)CC3)nc(N2CCC(F)(F)CC2)n1`: the concentration for half-maximal inhibition (IC50) was found to be 64 nM.

Consider `Cc1cc(NC(=O)c2ccc(S(C)(=O)=O)cc2N2CCC3(CC2)CC3)nc(NC(C)(C)CO)n1`, for which the IC50 amounted to 186 nM.
